# According to patent US6776971B1, “Visible light pH change for activating polymers and other pH dependent reactants” (The United States of America as represented by the …, priority 1998, dated 2004):
# How the values were obtained:
# [1] = cited from earlier work
# [2] = Acidity constants (pK) in ground, first excited singlet and triplet states; assay type: physicochemical; conditions: for pK (S0): ground state
# Source text: The term pK is a shorthand indicating the strength of an acid (pKa) and is defined as the −log10 K in which K is the characteristic equilibrium constant K, represented by:
# where [H^+] is the hydrogen ion concentration and [B] is the concentration of the conjugate base. When the amount of one of these constituents is varied, the others will adjust to keep K constant.
# (§1) In Table 1, characteristics of the carbon acids are described. […] In this table, “obs” means “observed” and “c” means “calculated”.
# By utilizing visible light, the protonated form BH^+ of anthracene is disassociated into its base (B) and hydrogen ion (H^+) constituents to prompt a pH change from […]. […] The calculation in Table 2 is based on a pK(S0) value for anthracene found in Mackor. E. L., Hofstra, A., and Van Der Waals, J. H., 1958, in an article entitled “The Basicity of Aromatic Hydrocarbons”, Trans. Faraday Soc., vol. 54, 66.
# [3] = Excited-state / phosphorescence lifetimes of candidate jump molecules; assay type: physicochemical; conditions: for τp (excited-state lifetime, p for phosphorescence): carbon acids, obs = observed; for Lifetimes (mS): triplet, prolonged excited state
# Source text: During the course of scientific research, the inventor constructed kinetic equations for the 3-level system of FIG. 1. Referring again to FIG. 1, an ideal “jump molecule” will be excited from ground state energy level (S0) to first excited singlet state energy level (S1), and return to the ground state via triplet state energy level (T1). The radiationless transition and radiative decay via phosphorescence will function as a “sink” for the molecules and because of their combined long lifetime, a prolonged molecule excited state will exist. The pH change produced by this excitation will last for the life of this excited state.
# For example, the phenones are considered undesirable because the lifetimes of the protonated and non-protonated forms are very different, providing a rapid excited state deactivation channel. An example of this is benzophenone, having an unprotonated lifetime of 100 milliseconds and a protonated lifetime of 62 nanoseconds.
# as §1
# [4] = Excitation wavelength and light absorbance; assay type: physicochemical; conditions: for Log (eps) / epsilon: 413.1 nm
# Source text: In Table 1, characteristics of the carbon acids are described. […] In this table, “obs” means “observed” and “c” means “calculated”. Of these, the PAC, anthracene, fits well with certain well established polymers. Referring to FIG. 4, the protonated form of this molecule is confirmed. […] The peak at 424 nm is the only peak within the visible region of the spectrum which decreases with time, and is the signature of anthracene's protonated form. It is this peak that is used to activate the anthracene polymeric actuator with visible light.
# [5] = pK(S0), value from Mackor et al 1958; cited from earlier work
compound,measurement,setting,value
O=S(=O)(O)c1ccc2cc(O)ccc2c1 [2-naphthol-6-sulfonate],excited-state pKa value,"[1]; S1 state, UV laser, from measured rate constants",1.9
same,ground-state pKa value,[1],9.1
same,change in pKa,[1]; ground vs excited state,7 unit
N#CC1c2ccccc2-c2ccccc21 [9-cyanflourene],pK (S0),[2],11.4
same,"τp (excited-state lifetime, p for phosphorescence)",[3],obs
same,λ00 (excitation wavelength necessary to initiate a pH change),[4],300 nm
c1ccc(C2c3ccccc3-c3ccccc32)cc1 [9-phenylflourene],pK (S0),[2],18.6
same,"τp (excited-state lifetime, p for phosphorescence)",[3],obs
same,λ00 (excitation wavelength necessary to initiate a pH change),[4],305 nm
"c1ccc2cc3ccccc3cc2c1 [Anthracene, anthracene]",pK's Singlet,[2],13.6
same,pK's Triplet,[2]; pK(T1),10.3
same,Lifetimes nS,[3]; singlet excited state,10.0 nS
same,Lifetimes (mS),[3],(10.0) mS
same,Lifetimes (mS),[3]; listed as anthracene,10 mS
same,Log (eps),[4],0.04
same,epsilon,[4],1
same,pK's Ground,[5],3.8
O=C(c1ccccc1)c1ccccc1 [benzophenone],protonated lifetime,[3],62 nanoseconds
same,unprotonated lifetime,[3],100 milliseconds
c1ccc2c(c1)Cc1ccccc1-2 [fluorene],pK (S0),[2],23.04
same,"τp (excited-state lifetime, p for phosphorescence)",[3],0.35 ms
same,λ00 (excitation wavelength necessary to initiate a pH change),[4],300 nm
protonated anthracene [BH+],Log (eps),[4],4.38
same,epsilon,[4],23988
same,absorbance peak within the visible region,"[4]; zero-time spectrum, FIG. 4",424 nm
